Values of other authors as cited in US7166295B1, “Methods of treatment and diagnostic visualization, particularly in cancer” (priority 1995, dated 2007).

Details: incorporated in liposomes, injected intraperitoneally into mice; compared with injection of the respective free drug

Structure (SMILES)	concentration of drug in the plasma, spleen and lymphoid tissue relative to the free drug
CCCCCCCCCCCCCCCC(=O)OCC(COP(=O)(O)OCC1OC(n2cc(C)c(=O)[nH]c2=O)CC1N=[N+]=[N-])OC(=O)CCCCCCCCCCCCCCC (centres unmarked) [DPP-AZT, Dipalmitoyl-phosphatidyl-3′-Azido-3′-deoxythymidine]	increased concentration of drug in the plasma, spleen and lymphoid tissue
CCCCCCCC/C=C\CCCCCCCC(=O)OCC(COP(=O)(O)OC[C@@H]1CCC(n2ccc(N)nc2=O)O1)OC(=O)CCCCCCC/C=C\CCCCCCCC (some centres unmarked) [DOP-ddc, Dioleoyl-phospathidyl-ddc]	increased concentration of drug in the plasma, spleen and lymphoid tissue
